Laboratory results reported in patent publication US20210238138A1, “Method for improving nucleation of crystals from solution” (Université Libre de Bruxelles, priority 2018, published 2021).
≈ marks a conversion by molar mass, not a printed value.

Assays:
[1] = Antisolvent (hexane) crystallisation of Brivaracetam/IPAc in capillary tubing; type: physicochemical; conditions: for Crystals Mean maximum length: inner diameter 500 μm, flows 20 and 20 mL · min^−1
Method: The length of the capillary tube has also been varied. In the following tests, antisolvent hexane at 4° C. was added to a solution of Brivaracetam/IPAc. It became clear that for these cases different lengths of tubing are to be investigated, as too long tube results into blockage of the tubes due to too high solid content in suspension in the solution, as reported in table 6. In all cases, the preferred rods form was observed.

[2] = Solubility of Brivaracetam in IPAc; conditions: IPAc (isopropyl acetate), organic solvent or mixture

CCC[C@@H]1CC(=O)N([C@@H](CC)C(N)=O)C1 [Brivaracetam]
Crystal form observed ([1]; all antisolvent (hexane) tests of tables 5 and 6): rods
Crystals Mean maximum length ([1]; test 22: 150 mg · mL^−1 in IPAc, σ 8.4, hexane antisolvent, tubular length 18 cm): 6 ± 2 μm
Crystals Mean maximum length ([1]; test 23: 150 mg · mL^−1 in IPAc, σ 8.4, hexane antisolvent, tubular length 33 cm): 9 ± 5 μm
Crystals Mean maximum length ([1]; test 24: 150 mg · mL^−1 in IPAc, σ 8.4, hexane antisolvent, tubular length 50 cm): 10 ± 5 μm
Crystals Mean maximum length ([1]; test 25: 150 mg · mL^−1 in IPAc, σ 8.4, hexane antisolvent, tubular length 50 cm): 9 ± 4 μm
Crystals Mean maximum length ([1]; test 26: 150 mg · mL^−1 in IPAc, σ 8.4, hexane antisolvent, tubular length 100 cm): Blocked tube
Crystals Mean maximum length ([1]; test 27: 200 mg · mL^−1 in IPAc, σ 11.5, hexane antisolvent, tubular length 18 cm): 12 ± 6 μm
Crystals Mean maximum length ([1]; test 28: 200 mg · mL^−1 in IPAc, σ 11.5, hexane antisolvent, tubular length 33 cm): 7 ± 3 μm
Crystals Mean maximum length ([1]; test 29: 200 mg · mL^−1 in IPAc, σ 11.5, hexane antisolvent, tubular length 50 cm): 9 ± 5 μm
Crystals Mean maximum length ([1]; test 30: 200 mg · mL^−1 in IPAc, σ 11.5, hexane antisolvent, tubular length 50 cm): 7 ± 3 μm
Crystals Mean maximum length ([1]; test 31: 200 mg · mL^−1 in IPAc, σ 11.5, hexane antisolvent, tubular length 100 cm): Blocked tube
Crystals Mean maximum length ([1]; test 32: 300 mg · mL^−1 in IPAc, σ 17.8, hexane antisolvent, tubular length 50 cm): 8 ± 3 μm
Crystals Mean maximum length ([1]; test 33: 300 mg · mL^−1 in IPAc, σ 17.8, hexane antisolvent, tubular length 100 cm): Blocked tube
solubility ([2]; 20 °C): 136 mg/mL (≈ 641 mM)
solubility ([2]; 45 °C): ~1100 mg/mL (≈ 5180 mM)
